Experimental data taken from EP4548976A1, “ANTIVIRAL COMPOUNDS AND COMPOSITIONS THEREFROM” (Consejo Superior De Investigaciones Científicas, priority 2023, dated 2025).

What was measured:
[1] = system: SARS-CoV-2 stock strain NL/2020; experiment: Antiviral activity in A549-ACE2 cells using viral antigen quantitation (SARS-CoV-2 N protein immunofluorescence); assay type: cell-based; details: Severe acute respiratory syndrome coronavirus 2, MOI 0.005, 48 h; for EC50: concentration reducing SARS-CoV-2 infection efficiency by 50% vs vehicle; for EC90: concentration reducing SARS-CoV-2 infection efficiency by 90% vs vehicle
in vitro = details: human

`COC(=O)c1cc(-c2ccc3c(c2)OCCO3)ccc1NC(C#N)[C@@H](Cc1c[nH]c2ccccc12)NC(=O)OC(C)(C)C` (mixture of isomers) [Example 28, Methyl 2-(((1RS,2R)-2-((tert-butoxycarbonyl)amino)-1-cyano-3-(1H-indol-3-yl)propyl)amino)-5-(2,3-dihydrobenzo[b][1,4]dioxin-6-yl)benzoate] showed an EC50 [1] of 7 µM, an EC90 [1] of 30 µM and a CC50 (in vitro) of over 50 µM.
Compound `COC(=O)c1cc(-c2cccc3[nH]ncc23)ccc1NC(C#N)[C@H](Cc1c[nH]c2ccccc12)NC(=O)OC(C)(C)C` (mixture of isomers) [Example 30, Methyl 2-(((1RS,2S)-2-((tert-butoxycarbonyl)amino)-1-cyano-3-(1H-indol-3-yl)propyl)amino)-5-(1H-indazol-4-yl)benzoate] has an EC50 [1] of 1 µM, an EC90 [1] of 2 µM and a CC50 (in vitro) of 10 µM.
For `COC(=O)c1cc(-c2ccc(N3CCOCC3)cc2)ccc1NC(C#N)[C@H](Cc1c[nH]c2cccc(-c3ccc(-c4cn(CCCOCCOCCOCCNC(=O)CCC[C@H]5SC[C@H]6NC(=O)N[C@H]65)nn4)cc3)c12)NC(=O)OC(C)(C)C` (mixture of isomers) [Example 20, Methyl 4-(((1RS,2S)-2-((tert-butoxycarbonyl)amino)-1-cyano-3-(4-(4-(1-(14-oxo-17-((3aR,4R,6aS)-2-oxohexahydro-1H-thieno[3,4-d]imidazol-4-yl)-4,7,10-trioxa-13-azaheptadecyl)-1H-1,2,3-triazol-4-yl)phenyl)-1H-indol-3-yl)propyl)amino)-4'-morpholino-[1,1'-biphenyl]-3-carboxylate], the EC50 [1] was 2 µM, the EC90 [1] was 50 µM and the CC50 (in vitro) was over 50 µM.
Work on `COC(=O)c1cc(-c2ccc(CN3CCOCC3)cc2)ccc1NC(C#N)[C@H](Cc1c[nH]c2ccccc12)NC(=O)OC(C)(C)C` (mixture of isomers) [Example 10, Methyl 4-(((1RS,2S)-2-((tert-butoxycarbonyl)amino)-1-cyano-3-(1H-indol-3-yl)propyl)amino)-4'-(morpholinomethyl)-[1,1'-biphenyl]-3-carboxylate] yielded an EC50 [1] of 0.9 µM, an EC90 [1] of 2 µM and a CC50 (in vitro) of over 50 µM.
In the case of `CC(C)(C)OC(=O)N[C@@H](Cc1c[nH]c2ccccc12)C(C#N)Nc1ccccc1C(=O)N1CCCCCC1` (mixture of isomers) [Example 31, tert-Butyl ((1RS,2S)-1-((2-(azepane-1-carbonyl)phenyl)amino)-1-cyano-3-(1H-indol-3-yl)propan-2-yl)carbamate], the EC50 [1] is reported as 8 µM, the EC90 [1] is reported as 39 µM and the CC50 (in vitro) is reported as 36 µM.
Compound `COC(=O)c1cc(-c2ccc(N3CCOCC3)cc2)ccc1NC(C#N)[C@H](Cc1c[nH]c2c(Br)cccc12)NC(=O)OC(C)(C)C` (mixture of isomers) [Example 3, Methyl 4-(((1RS,2S)-3-(7-bromo-1H-indol-3-yl)-2-((tert-butoxycarbonyl)amino)-1-cyanopropyl)amino)-4'-morpholino-[1,1'-biphenyl]-3-carboxylate] has an EC50 [1] of 3.5 µM, an EC90 [1] of 8 µM and a CC50 (in vitro) of over 50 µM.
`COC(=O)c1cc(-c2ccnn2C2CCCCO2)ccc1NC(C#N)[C@H](Cc1c[nH]c2ccccc12)NC(=O)OC(C)(C)C` (mixture of isomers) [Example 23, Methyl 2-(((1RS,2S)-2-((tert-butoxycarbonyl)amino)-1-cyano-3-(1H-indol-3-yl)propyl)amino)-5-(1-(tetrahydro-2H-pyran-2-yl)-1H-pyrazol-5-yl)benzoate] showed an EC50 [1] of 4 µM, an EC90 [1] of 8 µM and a CC50 (in vitro) of 50 µM.
`COC(=O)c1cc(-c2ccc(N3CCOCC3)cc2)ccc1NC(C#N)[C@H](Cc1c[nH]c2cc(Br)ccc12)NC(=O)OC(C)(C)C` (mixture of isomers) [Example 2, Methyl 4-(((1RS,2S)-3-(6-bromo-1H-indol-3-yl)-2-((tert-butoxycarbonyl)amino)-1-cyanopropyl)amino)-4'-morpholino-[1,1'-biphenyl]-3-carboxylate] showed an EC50 [1] of 1.6 µM, an EC90 [1] of 6 µM and a CC50 (in vitro) of over 50 µM.
For `CC(C)(C)OC(=O)N[C@H](Cc1c[nH]c2ccccc12)C(C#N)Nc1ccc(Br)cc1C(=O)c1ccccc1` (mixture of isomers) [Example 26, tert-Butyl ((1RS,2R)-1-((2-benzoyl-4-bromophenyl)amino)-1-cyano-3-(1H-indol-3-yl)propan-2-yl)carbamate], the EC50 [1] was 6 µM, the EC90 [1] was 28 µM and the CC50 (in vitro) was 50 µM.
In the case of `COC(=O)c1cc(C2=CCCCC2)ccc1NC(C#N)[C@H](Cc1c[nH]c2ccccc12)NC(=O)OC(C)(C)C` (mixture of isomers) [Example 22, Methyl 4-(((1RS,2S)-2-((tert-butoxycarbonyl)amino)-1-cyano-3-(1H-indol-3-yl)propyl)amino)-2',3',4',5'-tetrahydro-[1,1'-biphenyl]-3-carboxylate], the EC50 [1] is reported as 6 µM, the EC90 [1] is reported as 9 µM and the CC50 (in vitro) is reported as 32 µM.
For `COC(=O)c1cc(-c2cnn(Cc3ccccc3)c2)ccc1NC(C#N)[C@H](Cc1c[nH]c2ccccc12)NC(=O)OC(C)(C)C` (mixture of isomers) [Example 17, Methyl 5-(1-benzyl-1H-pyrazol-4-yl)-2-(((1RS,2S)-2-((tert-butoxycarbonyl)amino)-1-cyano-3-(1H-indol-3-yl)propyl)amino)benzoate], the EC50 [1] was 1 µM, the EC90 [1] was 2 µM and the CC50 (in vitro) was over 50 µM.
Work on `COC(=O)c1cc(-c2ccnc(N3CCOCC3)c2)ccc1NC(C#N)[C@H](Cc1c[nH]c2ccccc12)NC(=O)OC(C)(C)C` (mixture of isomers) [Example 7, Methyl 2-(((1RS,2S)-2-((tert-butoxycarbonyl)amino)-1-cyano-3-(1H-indol-3-yl)propyl)amino)-5-(2-morpholinopyridin-4-yl)benzoate] yielded an EC50 [1] of 1.1 µM, an EC90 [1] of 6 µM and a CC50 (in vitro) of over 50 µM.
`COC(=O)c1cc(-c2ccc(N3CCOCC3)cc2)ccc1NC(C#N)[C@H](Cc1c[nH]c2ccc(-c3ccccc3)cc12)NC(=O)OC(C)(C)C` (mixture of isomers) [Example 5, Methyl 4-(((1RS,2S)-2-((tert-butoxycarbonyl)amino)-1-cyano-3-(5-phenyl-1H-indol-3-yl)propyl)amino)-4'-morpholino-[1,1'-biphenyl]-3-carboxylate] gave an EC50 [1] of 4 µM, an EC90 [1] of 13 µM and a CC50 (in vitro) of over 50 µM.
Compound `COC(=O)c1cc(-c2ccc3[nH]ncc3c2)ccc1NC(C#N)[C@H](Cc1c[nH]c2ccccc12)NC(=O)OC(C)(C)C` (mixture of isomers) [Example 16, Methyl 2-(((1RS,2S)-2-((tert-butoxycarbonyl)amino)-1-cyano-3-(1H-indol-3-yl)propyl)amino)-5-(1H-indazol-5-yl)benzoate] has an EC50 [1] of 6 µM, an EC90 [1] of 9 µM and a CC50 (in vitro) of 10 µM.
Work on `COC(=O)c1cc(-c2ccc3[nH]ccc3c2)ccc1NC(C#N)[C@@H](Cc1c[nH]c2ccccc12)NC(=O)OC(C)(C)C` (mixture of isomers) [Example 27, Methyl 2-(((1RS,2R)-2-((tert-butoxycarbonyl)amino)-1-cyano-3-(1H-indol-3-yl)propyl)amino)-5-(1H-indol-5-yl)benzoate] yielded an EC50 [1] of 7 µM, an EC90 [1] of 9 µM and a CC50 (in vitro) of 35 µM.
